Assay [1] has as its target T1, PRMT5 (Homo sapiens, UniProt O14744).
T1 construct: purchased Viva (custom protein)
In words: PRMT5 biochemical IC50 assay with SAM as cofactor. The conditions noted are these: PRMT5, SAM as cofactor; read-out: SAM IC50.

Assay [2] deals with T1, PRMT5. Nature of the assay: PRMT5 biochemical IC50 assay with MTA as cofactor. Conditions: PRMT5, MTA as cofactor; read-out: MTA IC50.
Assay [3] deals with T1, PRMT5. In words: PRMT5 biochemical IC50 assay with no cofactor. Conditions: PRMT5, no cofactor. From the text: Table 1 indicates IC50 values (μM) against PRMT5 for exemplary compounds in the presence of SAM as cofactor, with no cofactor, and with MTA as cofactor, respectively (columns 4-6). […] Ki values can be calculated from the IC50 values as described in the Examples section. As detailed in the Examples section, for the assay performed in the presence of SAM, IC50=Ki×1.5 (Ki=IC50/1.5).

The subject of assay [4] is HAP1 MTAP-deleted cell line. Nature of the assay: SDMA in-cell western assay, HAP1 MTAP-deleted. It is filed as cell-based. Conditions: for IC50: Homo sapiens, HAP1, SDMA in-cell western, HAP1 MTAP-deleted; for MTAP intact/deleted ratio: SDMA in-cell western. Put shortly:
(§1)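 Isogenic HAP1 pair: the MTAP-intact line expresses endogenous MTAP, and the deleted line is MTAP-null. Symmetric dimethylarginine was detected by in-cell western and IC50 values derived for each line.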

For assay [5], the system named is HAP1 MTAP-intact cell line. In words: SDMA in-cell western assay, HAP1 MTAP-intact. In kind it is cell-based. The conditions noted are these: Homo sapiens, HAP1, SDMA in-cell western, HAP1 MTAP-intact; read-out: MTAP HAP1 intact IC50. Put shortly: as §1
Assay [6] relates to HAP1 MTAP-deleted cell line. Nature of the assay: Viability assay, MTAP-deleted cell line. The conditions noted are these: Homo sapiens, read-out: HAP1 MTAP deleted viability. In kind it is cell-based. The source says: Table 1 additionally indicates IC50 values in a viability assay for the MTAP-deleted cell line (column 10), indicating the effect of treatment with compound on cell survival.

The mark [7] stands for this setting: read-out: No Cofactor/ rel IC50.
Setting [8] is: read-out: HAP 1 MTAP deleted IC50.
[9] abbreviates: IC50 ratio HAP1 MTAP-intact / HAP1 MTAP-deleted.
[10] abbreviates: HAP1, viability, HAP1 MTAP-deleted cell line.

T1 sequence (O14744 whole entry): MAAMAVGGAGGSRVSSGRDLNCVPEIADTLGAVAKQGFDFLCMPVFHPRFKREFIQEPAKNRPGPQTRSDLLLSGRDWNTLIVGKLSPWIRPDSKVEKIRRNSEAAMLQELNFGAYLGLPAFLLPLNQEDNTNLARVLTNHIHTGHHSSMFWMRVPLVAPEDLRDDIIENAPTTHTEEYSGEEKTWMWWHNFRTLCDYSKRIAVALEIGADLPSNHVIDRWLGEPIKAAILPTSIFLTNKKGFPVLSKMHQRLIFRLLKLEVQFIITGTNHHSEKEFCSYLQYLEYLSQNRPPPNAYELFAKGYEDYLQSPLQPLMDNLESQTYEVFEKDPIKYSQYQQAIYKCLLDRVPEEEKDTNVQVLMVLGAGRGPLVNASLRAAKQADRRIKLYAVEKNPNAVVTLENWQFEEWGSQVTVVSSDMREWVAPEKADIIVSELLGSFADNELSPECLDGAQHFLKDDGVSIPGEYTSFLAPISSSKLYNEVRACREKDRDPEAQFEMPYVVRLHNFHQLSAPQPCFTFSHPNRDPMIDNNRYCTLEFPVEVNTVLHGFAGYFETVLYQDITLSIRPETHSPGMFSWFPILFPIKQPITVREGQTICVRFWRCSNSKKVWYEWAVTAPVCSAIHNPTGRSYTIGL
T1 sequence (Q9BQA1 whole entry partner): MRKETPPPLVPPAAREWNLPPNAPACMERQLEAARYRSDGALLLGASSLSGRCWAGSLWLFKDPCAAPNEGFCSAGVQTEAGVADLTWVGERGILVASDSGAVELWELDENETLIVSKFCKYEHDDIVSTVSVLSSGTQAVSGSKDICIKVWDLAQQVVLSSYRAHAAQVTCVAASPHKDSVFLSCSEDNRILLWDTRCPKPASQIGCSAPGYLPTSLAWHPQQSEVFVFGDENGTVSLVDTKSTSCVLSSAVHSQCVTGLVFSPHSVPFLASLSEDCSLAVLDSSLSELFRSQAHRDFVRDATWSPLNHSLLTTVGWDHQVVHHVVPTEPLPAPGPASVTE

For the compound `Cc1cc(NC(=O)C(=O)N2C[C@H](C)CC[C@H]2c2ccc(CCN(C)C)cc2)cnc1N` (racemic) [Compound 1233, N-(6-amino-5-methyl-3-pyridyl)-2-[2-[4-[2-(dimethylamino)ethyl]phenyl]-5-methyl-1-piperidyl]-2-oxo-acetamide], the IC50 is 50 to 500 nM in assay [1]; less than 50 nM in assay [2]; 50 to 500 nM in assay [3] (read-out: No Cofactor/rel IC50); less than 100 nM in assay [4] (read-out: HAP1 MTAP deleted IC50); 100 to 1000 nM in assay [5]; less than 1000 nM in assay [6] (HAP1, viability assay, MTAP-deleted cell line). Besides, the MTAP intact/deleted ratio entry in assay [4] (IC50 ratio HAP1 MTAP-intact vs HAP1 MTAP-deleted) is recorded as “B (an IC50 ratio greater than or equal to 3 fold but lower than 10 fold)”.
Consider `CCc1cc(NC(=O)C(=O)N2C[C@@H](C)CC[C@@H]2c2ccc3nn(C4CN(C)C4)cc3c2)cnc1N` (racemic) [Compound 1239, N-(6-Amino-5-ethyl-3-pyridyl)-2-oxo-2-[rac-(2R,5S)-5-methyl-2-[2-(1-methylazetidin-3-yl)indazol-5-yl]-1-piperidyl]acetamide], for which the IC50 in assay [1] was 50 to 500 nM; in assay [2], less than 50 nM; in assay [3] (setting [7]) it was less than 50 nM; in assay [4] (setting [8]), less than 100 nM; in assay [5], 100 to 1000 nM; in assay [6] (setting [10]) it was less than 1000 nM. In assay [4] (setting [9]), the “MTAP intact/deleted ratio” value is listed as “A (an IC50 ratio greater than or equal to 10 fold)”.
`COc1ncc(NC(=O)C(=O)N2C[C@@H](C)CC[C@@H]2c2ccc3sc([C@H]4CCN(C)C4)nc3c2)cc1C(N)=O` (racemic) [Compound 1260, 2-methoxy-5-[[2-oxo-2-[rac-(2R,5S)-5-methyl-2-[2-[rac-(3S)-1-methylpyrrolidin-3-yl]-1,3-benzothiazol-5-yl]-1-piperidyl]acetyl]amino]pyridine-3-carboxamide]: the IC50 is less than 50 nM in assay [1]; less than 50 nM in assay [2]; less than 50 nM in assay [3] (setting [7]); less than 100 nM in assay [4] (setting [8]); less than 100 nM in assay [5]; less than 1000 nM in assay [6] (setting [10]). In addition, the “MTAP intact/deleted ratio” value in assay [4] (setting [9]) is on record as “A (an IC50 ratio greater than or equal to 10 fold)”.
On to `CCc1cc(NC(=O)C(=O)N2C[C@@H](C)CC[C@@H]2c2ccc3c(c2)C(=O)N(C2CCN(C)CC2)C3)cnc1N` (racemic) [Compound 1272, N-(6-amino-5-ethyl-3-pyridyl)-2-oxo-2-[rac-(2R,5S)-5-methyl-2-[2-(1-methyl-4-piperidyl)-3-oxo-isoindolin-5-yl]-1-piperidyl]acetamide], for which the IC50 in assay [1] is 50 to 500 nM; in assay [2] it was less than 50 nM; in assay [3] (setting [7]) it was less than 50 nM; in assay [4] (setting [8]), less than 100 nM; in assay [5] it was 100 to 1000 nM; in assay [6] (setting [10]) it was less than 1000 nM. For the same compound, the “MTAP intact/deleted ratio” value in assay [4] (setting [9]) is reported as “A (an IC50 ratio greater than or equal to 10 fold)”.
Consider `COc1ncc(NC(=O)C(=O)N2C[C@@H](C)CC[C@@H]2c2ccc3sc([C@@H]4CCN(C)C4)nc3c2)cc1C(N)=O` (racemic) [Compound 1278, 2-methoxy-5-[[2-oxo-2-[rac-(2R,5S)-5-methyl-2-[2-[rac-(3R)-1-methylpyrrolidin-3-yl]-1,3-benzothiazol-5-yl]-1-piperidyl]acetyl]amino]pyridine-3-carboxamide], for which the IC50 in assay [1] was less than 50 nM; in assay [2], less than 50 nM; in assay [3] (setting [7]) it was less than 50 nM; in assay [4] (setting [8]) it was less than 100 nM; in assay [5], less than 100 nM; in assay [6] (setting [10]) it was less than 1000 nM. Besides, the “MTAP intact/deleted ratio” value in assay [4] (setting [9]) is on record as “A (an IC50 ratio greater than or equal to 10 fold)”.
In the case of `COc1ncc(NC(=O)C(=O)N2C[C@@H](C)CC[C@@H]2c2ccc3sc(CCN(C)C)nc3c2)cc1C(N)=O` (racemic) [Compound 1281, 5-[[2-[(2R,5S)-2-[2-[2-(dimethylamino)ethyl]-1,3-benzothiazol-5-yl]-5-methyl-1-piperidyl]-2-oxo-acetyl]amino]-2-methoxy-pyridine-3-carboxamide], the IC50 in assay [1] is 50 to 500 nM; in assay [2], less than 50 nM; in assay [3] (setting [7]), 50 to 500 nM; in assay [4] (setting [8]) it was less than 100 nM; in assay [5], 100 to 1000 nM; in assay [6] (setting [10]) it was less than 1000 nM. The “MTAP intact/deleted ratio” value in assay [4] (setting [9]) is on record as “A (an IC50 ratio greater than or equal to 10 fold)”.
In the case of `CCc1cc(NC(=O)C(=O)N2C[C@@H](C)CC[C@@H]2c2ccc(N3C[C@H]4CN(C)CC[C@H]4C3)cc2)cnc1N` (racemic) [Compound 1287, N-(6-amino-5-ethyl-3-pyridyl)-2-oxo-2-[rac-(2R,5S)-5-methyl-2-[4-[rac-(3aR,7aR)-5-methyl-3,3a,4,6,7,7a-hexahydro-1H-pyrrolo[3,4-c]pyridin-2-yl]phenyl]-1-piperidyl]acetamide], the IC50 is 50 to 500 nM in assay [1]; less than 50 nM in assay [2]; less than 50 nM in assay [3] (setting [7]); less than 100 nM in assay [4] (setting [8]); 100 to 1000 nM in assay [5]; less than 1000 nM in assay [6] (setting [10]). The “MTAP intact/deleted ratio” value in assay [4] (setting [9]) was “A (an IC50 ratio greater than or equal to 10 fold)”.
Turning to `CCc1cc(NC(=O)C(=O)N2C[C@@H](C)CC[C@@H]2c2ccc3cn(C4CC(C)(C)N(C)C(C)(C)C4)nc3c2)cnc1N` (racemic) [Compound 1295, N-(6-Amino-5-ethyl-3-pyridyl)-2-oxo-2-[rac-(2R,5S)-5-methyl-2-[2-(1,2,2,6,6-pentamethyl-4-piperidyl)indazol-6-yl]-1-piperidyl]acetamide], the IC50 in assay [1] is less than 50 nM; in assay [2], less than 50 nM; in assay [3] (setting [7]), less than 50 nM; in assay [4] (setting [8]), less than 100 nM; in assay [5], less than 100 nM; in assay [6] (setting [10]) it was less than 1000 nM. Besides, the “MTAP intact/deleted ratio” value in assay [4] (setting [9]) is “A (an IC50 ratio greater than or equal to 10 fold)”.
Consider `COc1ncc(NC(=O)C(=O)N2C[C@@H](C)CC[C@@H]2c2ccc3cn(C4CCN(C)CC4)nc3c2)cc1C(N)=O` (racemic) [Compound 1299, 2-Methoxy-5-[[2-oxo-2-[rac-(2R,5S)-5-methyl-2-[2-(1-methyl-4-piperidyl)indazol-6-yl]-1-piperidyl]acetyl]amino]pyridine-3-carboxamide], for which the IC50 in assay [1] is less than 50 nM; in assay [2] it was less than 50 nM; in assay [3] (setting [7]), less than 50 nM; in assay [4] (setting [8]), less than 100 nM; in assay [5] it was less than 100 nM; in assay [6] (setting [10]), less than 1000 nM. The “MTAP intact/deleted ratio” value in assay [4] (setting [9]) was “B (an IC50 ratio greater than or equal to 3 fold but lower than 10 fold)”.
For `CCc1cc(NC(=O)C(=O)N2C[C@@H](C)CC[C@@H]2c2ccc(OCCN(C)C)c(Cl)c2)cnc1N` (racemic) [Compound 1305, N-(6-Amino-5-ethyl-3-pyridyl)-2-oxo-2-[rac-(2R,5S)-2-[3-chloro-4-[2-(dimethylamino)ethoxy]phenyl]-5-methyl-1-piperidyl]acetamide], the IC50 was 50 to 500 nM in assay [1]; less than 50 nM in assay [2]; less than 50 nM in assay [3] (setting [7]); less than 100 nM in assay [4] (setting [8]); less than 100 nM in assay [5]; less than 1000 nM in assay [6] (setting [10]). Besides, in assay [4] (setting [9]), the “MTAP intact/deleted ratio” value is given as “A (an IC50 ratio greater than or equal to 10 fold)”.
For `COc1ncc(NC(=O)C(=O)N2C[C@@H](C)CC[C@@H]2c2ccc3nn([C@H]4CCN(C)C4)cc3c2)cc1C(N)=O` (racemic) [Compound 1318, 2-Methoxy-5-[[2-oxo-2-[rac-(2R,5S)-5-methyl-2-[2-[rac-(3S)-1-methylpyrrolidin-3-yl]indazol-5-yl]-1-piperidyl]acetyl]amino]pyridine-3-carboxamide], the IC50 in assay [1] is 50 to 500 nM; in assay [2], less than 50 nM; in assay [3] (setting [7]) it was less than 50 nM; in assay [4] (setting [8]), less than 100 nM; in assay [5], 100 to 1000 nM; in assay [6] (setting [10]), less than 1000 nM. The “MTAP intact/deleted ratio” value in assay [4] (setting [9]) is “A (an IC50 ratio greater than or equal to 10 fold)”.
Turning to `CCc1cc(NC(=O)C(=O)N2C[C@@H](C)CC[C@@H]2c2ccc(N3CCOC4(CN(C)C4)C3)cc2)cnc1N` (racemic) [Compound 1329, rac-N-(6-Amino-5-ethyl-3-pyridyl)-2-[(2R,5S)-5-methyl-2-[4-(2-methyl-5-oxa-2,8-diazaspiro[3.5]nonan-8-yl)phenyl]-1-piperidyl]-2-oxo-acetamide], the IC50 is 50 to 500 nM in assay [1]; 50 to 500 nM in assay [2]; 50 to 500 nM in assay [3] (setting [7]); less than 100 nM in assay [4] (setting [8]); more than 1000 nM in assay [5]; less than 1000 nM in assay [6] (setting [10]).

The values are drawn from patent US11999727B2 (Tango Therapeutics, Inc., priority 2020, dated 2024).
